Experimental data taken from US7803949B2, “Process for preparation of water-soluble azole prodrugs” (Eisai R&D Management Co., Ltd., priority 2005, dated 2010).
Structures can show the parent of a compound that is named as a salt.

Experiment: hygroscopicity by the micro balance method (Gravimetric Vapour Sorption System DVS-1)
Format: physicochemical
Conditions: FIG. 2 (A); temperature 25.1° C.
From the text: Next, it will be illustrated that although Compound (IV) prepared according to the present invention is a mono lysine salt, it has excellent […] in a comparison with a dilysine salt. Note that, a dilysine salt can be prepared by the methods disclosed in Published Japanese Translation of a PCT Application No. 2003-520235. […] Note that, the measurement instrument used in the micro balance method was the following apparatus:
Gravimetric Vapour Sorption System (Model DVS-1 Surface Measurement System).

## C[C@@H](c1nc(-c2ccc(C#N)cc2)cs1)[C@@](Cn1cncn1)(OCOP(=O)(O)O)c1ccc(F)cc1F [mono lysine salt]
  relative humidity at which moisture absorption phenomenon was observed: 70 % RH
